Test results from ChEMBL document CHEMBL2074247, “Induction of P-glycoprotein expression by HIV protease inhibitors in cell culture” (AIDS, 2000).

Target: ATP-dependent translocase ABCB1 (Homo sapiens, UniProt P08183)
Assay: TP_TRANSPORTER: Western blot, LS-180V
Type: functional, cell-based

Chain of ATP-dependent translocase ABCB1 (P08183 whole entry): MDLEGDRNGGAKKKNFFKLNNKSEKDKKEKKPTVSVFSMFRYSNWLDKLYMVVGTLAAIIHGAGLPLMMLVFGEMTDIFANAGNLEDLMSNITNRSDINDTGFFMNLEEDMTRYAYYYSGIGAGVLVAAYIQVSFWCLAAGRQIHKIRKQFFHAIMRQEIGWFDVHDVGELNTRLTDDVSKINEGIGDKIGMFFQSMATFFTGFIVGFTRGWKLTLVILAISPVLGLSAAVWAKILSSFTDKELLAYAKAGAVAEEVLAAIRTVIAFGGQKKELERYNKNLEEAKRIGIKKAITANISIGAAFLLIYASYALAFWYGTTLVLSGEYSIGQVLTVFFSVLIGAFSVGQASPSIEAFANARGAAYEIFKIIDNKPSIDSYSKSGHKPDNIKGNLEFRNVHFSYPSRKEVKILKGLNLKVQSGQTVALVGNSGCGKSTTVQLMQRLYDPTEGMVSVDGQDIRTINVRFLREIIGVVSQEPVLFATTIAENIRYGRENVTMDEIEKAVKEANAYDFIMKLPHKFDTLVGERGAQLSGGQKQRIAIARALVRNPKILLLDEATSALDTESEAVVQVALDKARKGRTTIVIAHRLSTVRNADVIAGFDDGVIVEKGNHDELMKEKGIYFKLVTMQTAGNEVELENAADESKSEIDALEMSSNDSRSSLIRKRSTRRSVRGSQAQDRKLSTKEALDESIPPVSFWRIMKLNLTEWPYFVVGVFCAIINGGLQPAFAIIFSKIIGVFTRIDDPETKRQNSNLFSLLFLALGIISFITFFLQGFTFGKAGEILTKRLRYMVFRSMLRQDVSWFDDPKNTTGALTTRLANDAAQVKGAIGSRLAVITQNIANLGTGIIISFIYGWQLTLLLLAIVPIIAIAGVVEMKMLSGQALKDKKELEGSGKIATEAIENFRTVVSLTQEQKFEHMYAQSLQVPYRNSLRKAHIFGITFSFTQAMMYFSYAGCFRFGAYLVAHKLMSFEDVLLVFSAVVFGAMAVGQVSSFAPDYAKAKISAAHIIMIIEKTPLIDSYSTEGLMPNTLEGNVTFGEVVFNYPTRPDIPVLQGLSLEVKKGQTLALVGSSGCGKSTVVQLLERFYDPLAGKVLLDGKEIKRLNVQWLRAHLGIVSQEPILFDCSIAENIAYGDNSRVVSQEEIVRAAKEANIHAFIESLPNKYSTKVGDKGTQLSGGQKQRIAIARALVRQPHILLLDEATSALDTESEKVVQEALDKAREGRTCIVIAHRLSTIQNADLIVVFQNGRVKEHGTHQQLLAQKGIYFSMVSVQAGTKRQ

Activity, inducer [+]:
Cc1c(O)cccc1C(=O)N[C@@H](CSc1ccccc1)[C@H](O)CN1C[C@H]2CCCC[C@H]2C[C@H]1C(=O)NC(C)(C)C [NELFINAVIR], CC(C)CN(C[C@@H](O)[C@H](Cc1ccccc1)NC(=O)O[C@H]1CCOC1)S(=O)(=O)c1ccc(N)cc1 [AMPRENAVIR], CC(C)(C)NC(=O)[C@@H]1CN(Cc2cccnc2)CCN1C[C@@H](O)C[C@@H](Cc1ccccc1)C(=O)N[C@H]1c2ccccc2C[C@H]1O.O [INDINAVIR], CC(C)(C)NC(=O)[C@@H]1C[C@@H]2CCCC[C@@H]2CN1C[C@@H](O)[C@H](Cc1ccccc1)NC(=O)[C@H](CC(N)=O)NC(=O)c1ccc2ccccc2n1 [SAQUINAVIR], COc1ccc(CCN(C)CCCC(C#N)(c2ccc(OC)c(OC)c2)C(C)C)cc1OC (stereo not given) [VERAPAMIL]
